Measurements from US20240208992A1, “MACROCYCLES AS CFTR MODULATORS” (Idorsia Pharmaceuticals Ltd, priority 2021, published 2024).

Biological target: human F508del-CFTR (Homo sapiens, UniProt P13569, DEL508-508)
Test: F508del-CFTR cell surface expression (corrector activity), DiscoveRx ß-galactosidase complementation chemiluminescence assay in recombinant U2OS cell line;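 further: U2OS cells co-expressing ProLink-tagged F508del-CFTR and a membrane-anchored enzyme acceptor, where more surface CFTR restores β-galactosidase activity measured by chemiluminescence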
[1] = EC50, F508del-CFTR cell surface expression, U2OS cells, 16h compound incubation, geomean values
[2] = U2OS, in relation to Emax of corrector lumacaftor (=100%), arithmetic mean values
[3] = EC50, F508del-CFTR cell surface expression, U2OS cell line, 16h compound incubation, geomean values
[4] = U2OS, in relation to the Emax of the corrector lumacaftor (=100%), U2OS cell line, 16h compound incubation, arithmetic mean values
[5] = EC50, F508del-CFTR cell surface expression, U2OS cells, 16h compound incubation, geomean of several measurements
[6] = U2OS, in relation to the Emax of the corrector lumacaftor (=100%), U2OS cells, 16h compound incubation, arithmetic mean

Chain of human F508del-CFTR (P13569 with tags, fused parts or gaps DEL508-508): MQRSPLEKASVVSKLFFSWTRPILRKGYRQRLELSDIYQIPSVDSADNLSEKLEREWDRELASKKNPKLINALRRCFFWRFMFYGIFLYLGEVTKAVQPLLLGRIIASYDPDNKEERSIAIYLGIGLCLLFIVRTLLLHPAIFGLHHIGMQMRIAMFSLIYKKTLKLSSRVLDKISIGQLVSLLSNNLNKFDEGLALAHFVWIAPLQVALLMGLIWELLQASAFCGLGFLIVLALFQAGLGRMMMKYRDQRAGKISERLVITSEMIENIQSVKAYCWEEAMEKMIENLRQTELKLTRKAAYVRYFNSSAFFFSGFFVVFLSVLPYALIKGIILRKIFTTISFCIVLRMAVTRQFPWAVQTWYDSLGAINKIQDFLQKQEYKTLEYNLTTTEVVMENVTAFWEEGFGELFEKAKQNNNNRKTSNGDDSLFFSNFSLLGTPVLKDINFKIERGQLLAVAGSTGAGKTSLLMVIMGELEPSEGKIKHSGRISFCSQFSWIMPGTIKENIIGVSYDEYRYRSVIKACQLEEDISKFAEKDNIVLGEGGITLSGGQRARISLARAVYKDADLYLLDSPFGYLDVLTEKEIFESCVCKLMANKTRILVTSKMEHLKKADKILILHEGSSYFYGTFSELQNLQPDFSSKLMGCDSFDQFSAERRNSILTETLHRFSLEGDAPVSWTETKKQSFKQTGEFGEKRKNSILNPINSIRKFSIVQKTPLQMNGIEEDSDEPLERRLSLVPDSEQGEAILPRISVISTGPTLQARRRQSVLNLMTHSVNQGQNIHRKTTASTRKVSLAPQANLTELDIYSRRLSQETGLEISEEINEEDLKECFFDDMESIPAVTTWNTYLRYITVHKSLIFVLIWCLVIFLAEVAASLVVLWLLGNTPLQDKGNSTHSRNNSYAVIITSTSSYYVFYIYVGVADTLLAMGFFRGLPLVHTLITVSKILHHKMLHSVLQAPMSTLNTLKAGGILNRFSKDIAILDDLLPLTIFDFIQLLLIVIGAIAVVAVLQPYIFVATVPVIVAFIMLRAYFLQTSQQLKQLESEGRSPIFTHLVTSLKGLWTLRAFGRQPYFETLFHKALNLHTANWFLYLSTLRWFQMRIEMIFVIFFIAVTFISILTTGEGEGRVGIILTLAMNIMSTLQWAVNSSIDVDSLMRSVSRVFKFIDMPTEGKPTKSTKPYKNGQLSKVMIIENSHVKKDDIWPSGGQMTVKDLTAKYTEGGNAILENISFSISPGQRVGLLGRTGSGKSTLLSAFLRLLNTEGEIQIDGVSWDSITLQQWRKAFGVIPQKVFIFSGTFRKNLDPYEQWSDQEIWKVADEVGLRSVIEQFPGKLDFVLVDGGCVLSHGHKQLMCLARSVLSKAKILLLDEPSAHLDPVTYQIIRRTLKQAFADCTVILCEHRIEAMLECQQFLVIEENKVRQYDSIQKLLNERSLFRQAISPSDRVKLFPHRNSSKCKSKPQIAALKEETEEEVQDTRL

Structure (SMILES)	EC50 [1] [nM]	Emax [2] [%]	further results
COc1nccc2c1C(=O)N[C@H](C(=O)NCCc1cc(C3CC3)on1)CC(=O)N(C)[C@@H](CC(C)C)C(=O)N1CCCC[C@@H]1C(=O)N[C@H](Cc1ccccc1)CO2 [Example 512, (7S,11S,17aR,20R)-20-benzyl-N-(2-(5-cyclopropylisoxazol-3-yl)ethyl)-11-isobutyl-4-methoxy-10-methyl-5,9,12,18-tetraoxo-5,6,7,8,9,10,11,12,15,16,17,17a,18,19,20,21-hexadecahydro-14H-dipyrido[2,1-f:3′,4′-p][1]oxa[4,7,10,14]tetraazacycloheptadecine-7-carboxamide]	300	316	–
Cc1ccc(F)c(CCNC(=O)[C@@H]2CC(=O)N(C)[C@@H](CC(C)C)C(=O)N3CCCC[C@@H]3C(=O)N[C@H](Cc3ccccc3)COc3cnc4ccccc4c3C(=O)N2)c1 [Example 92, (9S,13S,19aR,22R)-22-benzyl-N-(2-fluoro-5-methylphenethyl)-13-isobutyl-12-methyl-7,11,14,20-tetraoxo-7,8,9,10,11,12,13,14,17,18,19,19a,20,21,22,23-hexadecahydro-16H-pyrido[2′,1′:6,7][1]oxa[4,7,10,14]tetraazacycloheptadecino[17,16-c]quinoline-9-carboxamide]	–	–	EC50 [3]: 289 nM; Emax [4]: 256%
CC(C)C[C@H]1C(=O)N2CCCC[C@@H]2C(=O)N[C@H](Cc2ccccc2)COc2cnc3ccccc3c2C(=O)N[C@H](C(=O)NCCc2ccns2)CC(=O)N1C [Example 103, (9S,13S,19aR,22R)-22-benzyl-13-isobutyl-N-(2-(isothiazol-5-yl)ethyl)-12-methyl-7,11,14,20-tetraoxo-7,8,9,10,11,12,13,14,17,18,19,19a,20,21,22,23-hexadecahydro-16H-pyrido[2′,1′:6,7][1]oxa[4,7,10,14]tetraazacycloheptadecino[17,16-c]quinoline-9-carboxamide]	–	–	EC50 [3]: 499 nM; Emax [4]: 256%
COc1ccc(CCNC(=O)[C@@H]2CC(=O)N(C)[C@@H](CC(C)C)C(=O)N(CCC3CCCCC3)CC(=O)N[C@H](Cc3ccccc3)COc3cccc(OC)c3C(=O)N2)cc1 (racemic) [Example 219, (3R,9S,13RS)-3-benzyl-7-(2-cyclohexylethyl)-9-isobutyl-16-methoxy-N-(4-methoxyphenethyl)-10-methyl-5,8,11,15-tetraoxo-2,3,4,5,6,7,8,9,10,11,12,13,14,15-tetradecahydrobenzo[p][1]oxa[4,7,10,14]tetraazacycloheptadecine-13-carboxamide]	–	–	EC50 [3]: 206 nM; Emax [4]: 182%
COc1cccc(CCNC(=O)[C@@H]2CC(=O)N(C)[C@@H](CC(C)C)C(=O)N(C)C3(CC3)C(=O)N[C@H](Cc3ccccc3)COc3cnc(OC)cc3C(=O)N2)c1 [Example 650, (3′R,9′S,13′S)-3′-benzyl-9′-isobutyl-17′-methoxy-N-(3-methoxyphenethyl)-7′,10′-dimethyl-5′,8′,11′,15′-tetraoxo-2′,3′,4′,5′,8′,9′,10′,11′,12′,13′,14′,15′-dodecahydro-7′H-spiro[cyclopropane-1,6′-pyrido[4,3-p][1]oxa[4,7,10,14]tetraazacycloheptadecine]-13′-carboxamide]	596	214	–
CC(C)C[C@H]1C(=O)N(C)[C@@H](Cc2nc(-c3ccc(F)cn3)no2)C(=O)N[C@H](Cc2ccccc2)COc2cnc3ccc(F)cc3c2C(=O)N[C@H](C(=O)NCCc2noc(C3CC3)n2)CC(=O)N1C [Example 814, (3S,7S,10S,13R)-13-benzyl-N-(2-(5-cyclopropyl-1,2,4-oxadiazol-3-yl)ethyl)-20-fluoro-10-((3-(5-fluoropyridin-2-yl)-1,2,4-oxadiazol-5-yl)methyl)-7-isobutyl-6,9-dimethyl-1,5,8,11-tetraoxo-1,2,3,4,5,6,7,8,9,10,11,12,13,14-tetradecahydro-[1]oxa[4,7,10,14]tetraazacycloheptadecino[17,16-c]quinoline-3-carboxamide]	–	–	EC50 (F508del-CFTR cell surface expression, U2OS cells, 16h compound incubation, geomean of several measurements): 631 nM; Emax (in relation to the Emax of the corrector lumacaftor (=100%), U2OS cells, 16h compound incubation, arithmetic mean): 242%
COc1nccc2c1C(=O)N[C@H](C(=O)NCCn1nnc(C3CC3)n1)CC(=O)N(C)[C@@H](CC(C)C)C(=O)N1CCCC[C@@H]1C(=O)N[C@H](Cc1ccccc1)CO2 [Example 833, (7S,11S,17aR,20R)-20-benzyl-N-(2-(5-cyclopropyl-2H-tetrazol-2-yl)ethyl)-11-isobutyl-4-methoxy-10-methyl-5,9,12,18-tetraoxo-5,6,7,8,9,10,11,12,15,16,17,17a,18,19,20,21-hexadecahydro-14H-dipyrido[2,1-f:3′,4′-p][1]oxa[4,7,10,14]tetraazacycloheptadecine-7-carboxamide]	–	–	EC50 [5]: 615 nM; Emax [6]: 411%
COc1cccc(CCNC(=O)[C@@H]2CC(=O)N(C)[C@@H](CC(C)C)C(=O)N3CCCC[C@@H]3C(=O)N[C@H](Cc3ccccc3)COc3c[n+]([O-])c4ccccc4c3C(=O)N2)c1 [Example 760, (9S,13S,19aR,22R)-22-Benzyl-13-isobutyl-9-((3-methoxyphenethyl)carbamoyl)-12-methyl-7,11,14,20-tetraoxo-7,8,9,10,11,12,13,14,17,18,19,19a,20,21,22,23-hexadecahydro-16H-pyrido[2′,1′:6,7][1]oxa[4,7,10,14]tetraazacycloheptadecino[17,16-c]quinoline 2-oxide]	723	333	–
COc1cccc(CCNC(=O)[C@@H]2CC(=O)N(C)[C@@H](CC(C)C)C(=O)N3CCN(S(=O)(=O)c4cncc(OC)c4)C[C@@H]3C(=O)N[C@H](Cc3ccccc3)COc3ccc4ccccc4c3C(=O)N2)c1 [Example 744, (4aR,7R,18S,22S)-7-benzyl-22-isobutyl-N-(3-methoxyphenethyl)-3-((5-methoxypyridin-3-yl)sulfonyl)-21-methyl-5,16,20,23-tetraoxo-2,3,4,4a,5,6,7,8,16,17,18,19,20,21,22,23-hexadecahydro-1H-naphtho[1,2-p]pyrazino[2,1-f][1]oxa[4,7,10,14]tetraazacycloheptadecine-18-carboxamide]	178	239	–
COc1nccc2c1C(=O)N[C@H](C(=O)NCCc1cnn(C3CC3)n1)CC(=O)N(C)[C@@H](CC(C)C)C(=O)N1CCCC[C@@H]1C(=O)N[C@H](Cc1ccccc1)CO2 [Example 187, (7S,11S,17aR,20R)-20-benzyl-N-(2-(2-cyclopropyl-2H-1,2,3-triazol-4-yl)ethyl)-11-isobutyl-4-methoxy-10-methyl-5,9,12,18-tetraoxo-5,6,7,8,9,10,11,12,15,16,17,17a,18,19,20,21-hexadecahydro-14H-dipyrido[2,1-f:3′,4′-p][1]oxa[4,7,10,14]tetraazacycloheptadecine-7-carboxamide]	–	–	EC50 [3]: 645 nM; Emax [4]: 267%
COc1nccc2c1C(=O)N[C@H](C(=O)NCCc1noc(C3CC3)n1)CC(=O)N(C)[C@@H](CC(C)C)C(=O)N(C)[C@H](CCc1nc(C3CCCC3)no1)C(=O)N[C@H](Cc1ccccc1)CO2 [Example 883, (3R,6R,9S,13S)-3-benzyl-6-(2-(3-cyclopentyl-1,2,4-oxadiazol-5-yl)ethyl)-N-(2-(5-cyclopropyl-1,2,4-oxadiazol-3-yl)ethyl)-9-isobutyl-16-methoxy-7,10-dimethyl-5,8,11,15-tetraoxo-2,3,4,5,6,7,8,9,10,11,12,13,14,15-tetradecahydropyrido[3,4-p][1]oxa[4,7,10,14]tetraazacycloheptadecine-13-carboxamide]	–	–	EC50 [5]: 111 nM; Emax [6]: 344%

Second part, led by results:

EC50 [1] [nM]	Emax [2] [%]	Structure (SMILES)	further results
149	298	CC(C)C[C@H]1C(=O)N2CCCC[C@@H]2C(=O)N[C@H](Cc2ccccc2)COc2ccc3ncccc3c2C(=O)N[C@H](C(=O)NCCc2cc(C3CC3)on2)CC(=O)N1C [Example 504, (9S,13S,19aR,22R)-22-benzyl-N-(2-(5-cyclopropylisoxazol-3-yl)ethyl)-13-isobutyl-12-methyl-7,11,14,20-tetraoxo-7,8,9,10,11,12,13,14,17,18,19,19a,20,21,22,23-hexadecahydro-16H-pyrido[2′,1′:6,7][1]oxa[4,7,10,14]tetraazacycloheptadecino[16,17-f]quinoline-9-carboxamide]	–
382	378	Cc1cc(CCNC(=O)[C@@H]2CC(=O)N(C)[C@@H](CC(C)C)C(=O)N(C)[C@H](C3CC3)C(=O)N[C@H](Cc3ccccc3)COc3ccc4ccccc4c3C(=O)N2)on1 [Example 508, (3S,7S,10R,13R)-13-benzyl-10-cyclopropyl-7-isobutyl-6,9-dimethyl-N-(2-(3-methylisoxazol-5-yl)ethyl)-1,5,8,11-tetraoxo-1,2,3,4,5,6,7,8,9,10,11,12,13,14-tetradecahydronaphtho[1,2-p][1]oxa[4,7,10,14]tetraazacycloheptadecine-3-carboxamide]	–
553	199	CC(C)C[C@H]1C(=O)N2CCCC[C@H]2C(=O)N[C@H](Cc2ccccc2)COc2cnc3c(F)cccc3c2C(=O)N[C@H](C(=O)NCCc2cc(C3CC3)no2)CC(=O)N1C [Example 500, (9S,13S,19aS,22R)-22-benzyl-N-(2-(3-cyclopropylisoxazol-5-yl)ethyl)-3-fluoro-13-isobutyl-12-methyl-7,11,14,20-tetraoxo-7,8,9,10,11,12,13,14,17,18,19,19a,20,21,22,23-hexadecahydro-16H-pyrido[2′,1′:6,7][1]oxa[4,7,10,14]tetraazacycloheptadecino[17,16-c]quinoline-9-carboxamide]	–
